Earlier results on 1 molecule are cited in article PMC10215804, “Exploring Alternative Pathways to Target Bacterial Type II Topoisomerases Using NBTI Antibacterials: Beyond Halogen-Bonding Interactions” (Antibiotics, 2023).

Data set [1] relates to MRSA (QA-11.2). The arrangement: method as in PMID 35970069. The settings on record: cited from earlier work.
Data set [2] has as its system E. coli ESBL QA-11.3. Also on record: method as in PMID 35970069. The settings on record: cited from earlier work.
Data set [3] concerns MRSA(QA-12.1). Also on record: method as in PMID 35970069. The settings on record: cited from earlier work.
Data set [4] relates to E. faecalis RDK 057. The settings on record: cited from earlier work.
The subject of data set [5] is A. baumannii. Also on record: method as in PMID 35970069. The settings on record: cited from earlier work.
Data set [6] concerns P. aeruginosa RDK 184. The settings on record: cited from earlier work.
The test system of data set [7] is E. coli (ATCC 25922). The settings on record: cited from earlier work.
The test system of data set [8] is VRE. The settings on record: cited from earlier work.
The target of data set [9] is T1, S. aureus DNA gyrase (Staphylococcus aureus, UniProt P20831).
T1 construct: purchased Inspiralis (Norwich, UK)
The settings on record: supercoiling inhibition; cited from earlier work.

Data set [10] addresses T2, E. coli topoIV (Escherichia coli, UniProt P0AFI2).
T2 construct: purchased Inspiralis (Norwich, UK)
The settings on record: relaxation inhibition; cited from earlier work.

For data set [11], the target named is T3, E. coli DNA gyrase (Escherichia coli, UniProt P0AES4).
T3 construct: purchased Inspiralis (Norwich, UK)
The settings on record: supercoiling inhibition; cited from earlier work.

Data set [12] deals with S. aureus (ATCC 29213). The settings on record: cited from earlier work.
In data set [13] the test system is E. coli N43 (CGSC# 5583). The settings on record: AcrA knockout; cited from earlier work.
Data set [14] deals with T4, human topoisomerase IIα (Homo sapiens, UniProt P11388).
T4 construct: purchased Inspiralis (Norwich, UK)
T4 sequence (P11388 whole entry): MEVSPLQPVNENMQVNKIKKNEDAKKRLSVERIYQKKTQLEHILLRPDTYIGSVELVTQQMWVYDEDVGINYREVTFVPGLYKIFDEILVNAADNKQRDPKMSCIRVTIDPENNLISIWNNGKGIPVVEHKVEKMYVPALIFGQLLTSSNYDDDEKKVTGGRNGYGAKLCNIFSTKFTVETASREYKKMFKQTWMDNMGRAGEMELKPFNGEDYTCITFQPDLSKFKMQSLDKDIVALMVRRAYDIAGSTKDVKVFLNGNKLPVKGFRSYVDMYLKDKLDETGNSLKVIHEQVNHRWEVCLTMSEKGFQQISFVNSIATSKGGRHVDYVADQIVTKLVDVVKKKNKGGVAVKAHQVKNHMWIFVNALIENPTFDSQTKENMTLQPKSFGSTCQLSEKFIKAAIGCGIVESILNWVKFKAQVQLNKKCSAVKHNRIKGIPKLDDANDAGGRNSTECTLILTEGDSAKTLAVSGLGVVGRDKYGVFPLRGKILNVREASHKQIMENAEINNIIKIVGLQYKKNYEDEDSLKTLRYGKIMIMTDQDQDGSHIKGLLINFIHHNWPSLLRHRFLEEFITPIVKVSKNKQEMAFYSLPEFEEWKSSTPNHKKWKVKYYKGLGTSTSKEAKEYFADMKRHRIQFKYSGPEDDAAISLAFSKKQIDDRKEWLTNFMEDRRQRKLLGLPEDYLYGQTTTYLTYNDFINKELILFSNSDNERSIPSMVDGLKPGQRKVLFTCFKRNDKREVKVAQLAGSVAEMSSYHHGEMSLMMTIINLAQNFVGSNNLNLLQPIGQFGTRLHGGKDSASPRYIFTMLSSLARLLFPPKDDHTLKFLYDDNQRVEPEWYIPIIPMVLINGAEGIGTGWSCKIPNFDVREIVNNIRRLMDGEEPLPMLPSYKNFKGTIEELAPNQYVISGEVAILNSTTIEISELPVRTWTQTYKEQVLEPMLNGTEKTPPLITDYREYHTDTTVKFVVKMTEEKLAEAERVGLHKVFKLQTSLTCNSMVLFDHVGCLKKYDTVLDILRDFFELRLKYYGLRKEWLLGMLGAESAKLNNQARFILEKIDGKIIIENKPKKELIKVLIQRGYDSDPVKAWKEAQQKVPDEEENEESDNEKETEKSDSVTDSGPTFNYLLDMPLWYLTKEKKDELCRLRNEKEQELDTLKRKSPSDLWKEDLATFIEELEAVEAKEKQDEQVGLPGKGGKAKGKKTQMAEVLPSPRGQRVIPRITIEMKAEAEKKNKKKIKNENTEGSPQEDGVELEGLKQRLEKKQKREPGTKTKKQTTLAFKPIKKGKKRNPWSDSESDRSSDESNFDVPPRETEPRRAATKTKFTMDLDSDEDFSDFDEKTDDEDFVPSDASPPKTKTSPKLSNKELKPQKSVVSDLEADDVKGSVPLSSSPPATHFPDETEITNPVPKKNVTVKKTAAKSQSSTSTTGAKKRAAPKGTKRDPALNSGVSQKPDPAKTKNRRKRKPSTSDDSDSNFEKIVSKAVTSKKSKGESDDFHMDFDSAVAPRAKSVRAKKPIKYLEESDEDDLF
The settings on record: residual activity at 100 µM compound; cited from earlier work.

Data set [15] addresses T5, S. aureus topoIV (Staphylococcus aureus, UniProt P0C1U9).
T5 construct: purchased Inspiralis (Norwich, UK)
The settings on record: relaxation inhibition; cited from earlier work.

The subject of data set [16] is K. pneumoniae. The arrangement: method as in PMID 35970069. The settings on record: cited from earlier work.
For data set [17], the system named is E. coli D22. The settings on record: lpxC mutation; cited from earlier work.
In data set [18] the test system is MRSA (QA-11.7). The settings on record: cited from earlier work.

SMILES strings stand for the structures. Converted amounts (≈) assume the structure as drawn.

T5 sequence (P0C1U9 whole entry): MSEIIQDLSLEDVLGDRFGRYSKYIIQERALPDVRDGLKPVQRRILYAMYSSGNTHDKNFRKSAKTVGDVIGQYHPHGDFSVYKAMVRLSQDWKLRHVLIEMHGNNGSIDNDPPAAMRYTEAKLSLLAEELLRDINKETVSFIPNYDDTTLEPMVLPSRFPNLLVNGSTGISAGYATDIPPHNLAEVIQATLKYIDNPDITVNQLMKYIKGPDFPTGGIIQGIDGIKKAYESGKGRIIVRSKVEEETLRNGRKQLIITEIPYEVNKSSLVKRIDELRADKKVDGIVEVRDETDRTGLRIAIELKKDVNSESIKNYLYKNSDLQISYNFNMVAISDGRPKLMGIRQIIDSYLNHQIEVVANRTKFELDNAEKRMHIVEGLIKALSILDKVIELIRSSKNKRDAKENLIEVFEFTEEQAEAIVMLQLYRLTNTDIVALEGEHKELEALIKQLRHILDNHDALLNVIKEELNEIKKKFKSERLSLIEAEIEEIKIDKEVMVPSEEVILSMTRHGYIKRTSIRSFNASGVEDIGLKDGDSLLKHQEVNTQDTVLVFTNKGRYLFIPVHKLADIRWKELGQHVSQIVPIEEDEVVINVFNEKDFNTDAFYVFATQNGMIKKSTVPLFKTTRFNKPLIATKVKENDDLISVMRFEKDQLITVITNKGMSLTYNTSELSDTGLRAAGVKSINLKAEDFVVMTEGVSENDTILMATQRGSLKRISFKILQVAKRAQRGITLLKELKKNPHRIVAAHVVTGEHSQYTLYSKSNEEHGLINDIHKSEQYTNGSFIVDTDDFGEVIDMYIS
T5 sequence (P0C1S7 whole entry partner): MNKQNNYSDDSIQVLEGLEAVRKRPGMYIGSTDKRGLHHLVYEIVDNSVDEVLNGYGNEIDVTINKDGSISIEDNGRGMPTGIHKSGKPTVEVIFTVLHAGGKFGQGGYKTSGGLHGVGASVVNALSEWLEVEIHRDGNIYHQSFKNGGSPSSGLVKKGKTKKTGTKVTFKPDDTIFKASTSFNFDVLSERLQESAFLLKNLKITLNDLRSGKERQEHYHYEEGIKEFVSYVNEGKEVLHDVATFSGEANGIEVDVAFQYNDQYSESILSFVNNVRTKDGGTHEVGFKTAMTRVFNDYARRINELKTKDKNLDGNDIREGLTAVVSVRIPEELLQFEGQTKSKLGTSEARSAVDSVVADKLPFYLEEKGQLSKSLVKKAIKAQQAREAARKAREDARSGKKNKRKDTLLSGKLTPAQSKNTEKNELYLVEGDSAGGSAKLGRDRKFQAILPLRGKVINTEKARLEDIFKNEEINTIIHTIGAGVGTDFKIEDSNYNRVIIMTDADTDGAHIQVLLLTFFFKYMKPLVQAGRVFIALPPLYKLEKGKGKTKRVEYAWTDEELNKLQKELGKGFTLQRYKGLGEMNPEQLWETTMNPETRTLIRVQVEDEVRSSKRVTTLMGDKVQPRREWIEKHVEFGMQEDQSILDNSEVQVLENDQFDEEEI
T2 sequence (P20083 whole entry): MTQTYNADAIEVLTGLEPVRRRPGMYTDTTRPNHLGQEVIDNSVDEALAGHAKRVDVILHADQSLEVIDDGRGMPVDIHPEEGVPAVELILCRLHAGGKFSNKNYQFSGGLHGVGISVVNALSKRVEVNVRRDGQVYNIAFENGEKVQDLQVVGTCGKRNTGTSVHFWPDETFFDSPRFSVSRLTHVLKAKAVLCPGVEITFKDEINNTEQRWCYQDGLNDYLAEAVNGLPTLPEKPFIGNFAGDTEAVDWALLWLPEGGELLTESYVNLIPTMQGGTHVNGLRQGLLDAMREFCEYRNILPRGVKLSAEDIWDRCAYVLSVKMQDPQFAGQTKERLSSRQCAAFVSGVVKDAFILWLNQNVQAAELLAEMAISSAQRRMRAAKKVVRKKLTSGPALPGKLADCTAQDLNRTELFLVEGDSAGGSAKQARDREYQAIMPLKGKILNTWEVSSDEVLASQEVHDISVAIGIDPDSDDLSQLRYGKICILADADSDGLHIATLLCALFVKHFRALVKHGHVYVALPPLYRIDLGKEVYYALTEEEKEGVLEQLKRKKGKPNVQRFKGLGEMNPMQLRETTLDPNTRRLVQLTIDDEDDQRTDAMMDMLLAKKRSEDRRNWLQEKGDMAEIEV
T2 sequence (P0AFI2 whole entry): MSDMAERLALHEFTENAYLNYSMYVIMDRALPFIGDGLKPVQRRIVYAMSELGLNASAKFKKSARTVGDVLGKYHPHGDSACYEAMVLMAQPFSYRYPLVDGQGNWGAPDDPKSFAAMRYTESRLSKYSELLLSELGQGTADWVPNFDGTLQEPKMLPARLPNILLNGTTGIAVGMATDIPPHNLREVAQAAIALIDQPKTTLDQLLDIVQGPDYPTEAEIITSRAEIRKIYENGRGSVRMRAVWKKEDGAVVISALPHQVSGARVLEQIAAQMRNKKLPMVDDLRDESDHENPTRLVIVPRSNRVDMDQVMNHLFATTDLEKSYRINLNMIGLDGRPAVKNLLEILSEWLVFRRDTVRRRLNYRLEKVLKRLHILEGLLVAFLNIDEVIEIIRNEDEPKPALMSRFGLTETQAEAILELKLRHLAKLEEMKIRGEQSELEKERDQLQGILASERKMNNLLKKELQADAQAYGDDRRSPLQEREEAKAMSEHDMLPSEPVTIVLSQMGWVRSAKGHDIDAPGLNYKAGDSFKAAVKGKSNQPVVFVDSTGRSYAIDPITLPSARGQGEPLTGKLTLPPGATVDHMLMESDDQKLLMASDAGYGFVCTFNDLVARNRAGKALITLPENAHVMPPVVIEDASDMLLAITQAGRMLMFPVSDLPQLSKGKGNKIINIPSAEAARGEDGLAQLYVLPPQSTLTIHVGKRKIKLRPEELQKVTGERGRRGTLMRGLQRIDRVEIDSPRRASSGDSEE

On to `COc1ccc2nccc(OC[C@H]3CC[C@H](NCc4ccc(Br)cc4)CO3)c2n1` [Compound 3], for which, in data set [1], the “MIC MRSA (QA-11.2)” value is reported as 0.25 µg/mL (≈ 0.545 µM). Besides, the “MIC E. coli ESBL QA-11.3” value in data set [2] was more than 128 µg/mL. Further, the “MIC MRSA(QA-12.1)” value in data set [3] was 0.125 µg/mL (≈ 0.273 µM). Moreover, in data set [4], the “MIC E. faecalis RDK 057” value was 2 µg/mL (≈ 4.36 µM). For the same molecule, in data set [5], the “MIC A. baumannii” value was more than 128 µg/mL. Moreover, the “MIC P. aeruginosa RDK 184” value in [6] was 128 µg/mL (≈ 279 µM). Moreover, the “MIC E. coli (ATCC 25922)” value in data set [7] was 128 µg/mL (≈ 279 µM). Further, the “MIC VRE” value in [8] is listed as 1 µg/mL (≈ 2.18 µM). The half-inhibitory concentration (IC50) in data set [9] is 294 ± 100 nM; in data set [10] it was 131 ± 40 nM; in [11], 7740 ± 2310 nM; in data set [15], more than 100000 nM. Besides, the “MIC S. aureus (ATCC 29213)” value in data set [12] is on record as 0.125 µg/mL (≈ 0.273 µM). The “MIC E. coli N43 (CGSC# 5583)” value in data set [13] was 8 µg/mL (≈ 17.5 µM). In [14], the “Human TopoIIα (% RA at 100 µM)” value is reported as 105 ± 1%. The “MIC K. pneumoniae” value in [16] is 128 µg/mL (≈ 279 µM). The “MIC E. coli D22” value in data set [17] is recorded as 8 µg/mL (≈ 17.5 µM). The “MIC MRSA (QA-11.7)” value in data set [18] is on record as 0.5 µg/mL (≈ 1.09 µM).

What is called IC50 is the point on the concentration scale where inhibition reaches its midpoint.
